According to patent publication US20230032623A1, “Tumor-on-a-chip” (NEW YORK UNIVERSITY, priority 2021, published 2023):
“Also recorded” adds a separate entry of the source.

Columns and labels:
Assay type in all cases: cell-based, human
allogeneic CD8+ T-cells [1] = test: Allogeneic CD8+ T-cell extravasation/infiltration across brain microvessels in GBM-on-a-Chip; details: BLZ945 0.1 μg/ml, nivolumab 1 μg/ml, mono or dual, every 24 hr for 3 days, PN, CL, MES GBM
Procedure: (§1) Patient-derived GBM cells were firstly dissociated with Accutase (Innovative Cell Technologies), and then labeled with CellTracker Red (5 μM, C34552, Thermo Fisher-Scientific) as per the manufacturer's instructions. TAMs and GBM cells were then mixed with a number ratio of 1:2 at a cell density of 1×10^8 cells/mL in the brain tissue-mimicking hydrogel. The final cell numbers of GBM and TAMs were about 1×10^5 cells per chip. […] Hydrogel solution was then quickly flushed into the hydrogel loading channel, and then incubated in an incubator at 37° C. and 5% CO2 for 30 min for complete gelation. After incubation, the media infusion channel and the vascular-seeding channel was flushed with fresh cell culture media for 2 hr. HBMVECs labeled with DiD (5 μM, V22887, Thermo Fisher-Scientific) were seeded into the vascular-seeding channel at a density of 5×10^6 cells/mL, and incubated at 37° C. and 5% CO2 overnight with fresh cell culture media. To form the vascular lumens, the microfluidic chip was flipped every 15 mins for 2 hr to let HBMVECs to uniformly attach to the vascular-seeding channel. After 24 hr′ incubation, IL-2 activated allogeneic CD8+ T-cells were firstly labeled with CellTracker Green (5 μM, C2925, Thermo Fisher-Scientific) and loaded into the vascular channel at a total cell number of 1×10^6 cells per chip. After culture in the incubator for 1-3 days, live cell images of different cell compartments were captured by an inverted fluorescent microscope (Zeiss Axio Observer.Z1).
Infiltrated CD8+ T-cells were defined as the CD8+ T-cells migrating out of vascular lumens. To quantify the migration behaviors of those CellTracker Green-labeled allogeneic CD8+ T-cells, time-lapsed image stacks were acquired every minute for 2 hr and at least three positions in each microfluidic chip. The cell centroids at different time points of the same cell were then used to calculate the cell migration speed and linked up to represent the migration trajectories by using ImageJ (NIH). The mean migration speeds were then averaged for all infiltrated cells. […]

allogeneic CD8+ T-cells [2] = test: CD8+ T-cell activation analysis (CD154 expression) in GBM-on-a-Chip; details: BLZ945 0.1 μg/ml, nivolumab 1 μg/ml, mono or dual, 3 days
Procedure: To characterize the expression of surface marks on GBM cell, CD8+ T-cell and TAM, cells were firstly recovered with Corning Cell Recovery Solution (Corning, N.Y., USA) from the brain tissue-mimicking hydrogel. Briefly, cell culture medium was aspirated, and the microfluidics chip was rinsed with cold 1× PBS twice, 10 min per round. PDMS slabs were detached from the cover glass in the microfluidics chip, followed by incubation with Corning Cell Recovery Solution on ice for 30 min. With gently pipetting the channel containing cells, the cell suspension was centrifuged, washed with cold 1 x PBS twice and then resuspended in 5% BSA blocking buffer. All cell samples were fixed in 4% paraformaldehyde (PFA) (Sigma-Aldrich) for 10 min at room temperature. […] To quantify PD-1 expression on CD8+ T-cell, cells were first incubated with PD-1 primary antibody (367402, Biolegend) for 1 hr, and then visualized with Alexa Fluor 488 conjugated goat anti-mouse IgG secondary antibodies (Invitrogen, 5 μg/mL). […] PD-1 and CD154 expressions on CD8+ T-cell, PD-L1 and CD163 expressions on macrophage were quantified based on the mean florescent intensity of cell staining using ImageJ (NIH). Alternatively, ratios of CD154+ or CD163+-cells were calculated relative to CD8+ cells or CD68+ cells, respectively. […]

[3] = tested on: patient-derived GBM cells; test: Quantification of GBM cell apoptosis (caspase-3/7 activation) in GBM-on-a-Chip; details: BLZ945 0.1 μg/ml, nivolumab 1 μg/ml, mono or dual; for GBM cell apoptosis with presence of microglia versus macrophage only system: HMC3 microglia present, PN, CL, MES GBM
Procedure: as §1
To examine the apoptosis of GBM cells in the microfluidic model, CellEvent Caspase-3/7 Green Detection Reagent (R37111, Thermo Fisher-Scientific) and Hoechst 33342 (5 μg/mL; H3570, Thermo Fisher-Scientific) were used to distinguish the apoptotic cells that with activated caspase-3/7 with bright green nuclei. […] The ratio of apoptotic GBM cells were calculated as the number of cells with green nuclei to the total number of GBM cells that were stained with CellTracker Red (5 μM, C34552, Thermo Fisher-Scientific). […]

[4] = tested on: tumor-associated macrophages (TAMs); test: CD163 (M2-like marker) expression on TAM in GBM-on-a-Chip, immunostaining and qPCR
Procedure: U937 monocytes were polarized into macrophages with treatments of 5 nM PMA (Sigma-Aldrich) for 24 hr (Shi Y et al., Nature communications. 2017 Jun. 1; 8(1):1-7). Biomimetic TAMs (CD68+CD163+) were obtained by culturing U937-derived macrophages in complete culture media supplemented with supernatants of patient-derived GBM cells (5×10^5 cells/mL) which were collected after 3 days' culture and centrifuged at 2000×g for 10 min at 4° C. to remove cell debris. Cryopreserved human PBMCs (10HU-003, iXCells Biotechnologies) were thawed and cultured in RPMI-1640 medium (Gibco) supplemented with 10% FBS (Gibco) and 1% penicillin/streptomycin (Gibco) overnight before sorting for CD8+ T-cells. Allogeneic CD8+ T-cells were isolated from PBMCs via negative selection using MojoSort Human CD8 T-Cell Isolation Kit (MojoSort, 480011, Biolegend) as per the manufacturer's protocol (FIG. 7A through FIG. 7D). […]
To characterize the expression of surface marks on GBM cell, CD8+ T-cell and TAM, cells were firstly recovered with Corning Cell Recovery Solution (Corning, N.Y., USA) from the brain tissue-mimicking hydrogel. […] To quantify PD-1 expression on CD8+ T-cell, cells were first incubated with PD-1 primary antibody (367402, Biolegend) for 1 hr, and then visualized with Alexa Fluor 488 conjugated goat anti-mouse IgG secondary antibodies (Invitrogen, 5 μg/mL). […]

PD-L1 = test: qPCR analysis of PD-L1 expression in TAM and GBM cell
Procedure: Control groups were treated with fresh cell culture media supplemented with DMSO (0.01%) and human IgG4 isotype control antibody (1 μg/mL, BioLegend). Fresh cell culture media supplemented anti-PD-1 and anti-CSF-1R antibodies was loaded in the microfluidic channels 2 hr after loading allogeneic CD8+ T-cells. Blocking media was freshly prepared and replenished every 24 hr for 3 days.
RNA was extracted using RNeasy Plus Mini Kit (Qiagen, US), and cDNA was synthesized from the mRNA using SuperScript IV VILO Master Mix for RT-RCR (Invitrogen, US), followed by real-time PCR using a SYBR Green PCR Master Mix (Thermo Fisher Scientific, US) and QuantStudio six sequence detection system (Applied Biosystems, Thermo Fisher Scientific). The reactions were performed with the following cycling conditions: 95° C. for 10 min followed by 40 cycles of 95° C. for 15 s and 60° C. for 1 min. GAPDH was used as a housekeeping gene for normalization. All experiments were repeated three times. The relative change in gene expression was analyzed with the 2^−ΔΔCT method. […]

nivolumab: human IgG4 anti-PD-1 monoclonal antibody; PD-1 blockade
Allogeneic CD8+ T-cell extravasation / infiltrated CD8+ T-cells (allogeneic CD8+ T-cells [1]): did not increase the extravasation of allogeneic CD8+ T-cell
CD8+ T-cell activation (CD154 expression, CD154+CD8+ T-cells) (allogeneic CD8+ T-cells [2]): did enhance CD8+T-cell activation in the PN and MES GBMs
GBM cell apoptosis with presence of microglia versus macrophage only system [3]: no significant difference with the GBM and macrophage only condition

CNC(=O)c1cc(Oc2ccc3nc(N[C@@H]4CCCC[C@H]4O)sc3c2)ccn1 [BLZ945]
M2-like marker CD163 expression on TAM / macrophage polarization toward M2 phenotype ([4]; BLZ945 0.1 μg/ml every 24 hr for 3 days, PN (GBML20), CL (GBML08), MES (GBML91) GBM subtypes): suppressed the polarization of macrophages toward an immunosuppressive M2 phenotype in all three GBM subtypes with more significant CD163 marker suppression in the CL and MES GBM subtypes relative to the PN GBM; also recorded: limited expression of CD163 in all GBM subtypes
CD163 expression in TAM by qPCR ([4]; BLZ945 0.1 μg/ml, qPCR): inhibition of CD163 expression in TAM
PD-L1 expression in TAM and GBM cells (PD-L1; BLZ945 0.1 μg/ml alone, qPCR): no significant change in PD-L1 expression for both TAM and GBM cells
mRNA expression of PD-L1 in GBM cell (PD-L1; BLZ945 0.1 μg/ml, GBM cells co-cultured with TAM): did not change the PD-L1 expression in GBM cells
Allogeneic CD8+ T-cell extravasation / infiltrated CD8+ T-cells (allogeneic CD8+ T-cells [1]): can significantly enhance allogeneic CD8+ T-cell extravasation across brain microvessels
Allogeneic CD8+ T-cell extravasation / infiltrated CD8+ T-cells (allogeneic CD8+ T-cells [1]; listed as CSF-1R inhibitor): increased allogeneic CD8+ T-cell infiltration in the tumor
CD8+ T-cell activation (CD154 expression, CD154+CD8+ T-cells) (allogeneic CD8+ T-cells [2]): did not significantly reverse the immunosuppression onto the cytotoxic CD8+ T-cell
GBM cell apoptosis (caspase-3/7 activation) ([3]; 3 days, macrophage-only system): limited effect on tumor apoptosis
GBM cell apoptosis with presence of microglia versus macrophage only system [3]: no significant difference with the GBM and macrophage only condition
